Experimental data published in article PMC8578705 (Cell Reports, 2021).

Tests used:
IP3R1 (HEK-IP3R1 cells) = biological target: T1, IP3R1 (HEK-IP3R1 cells) (Rattus norvegicus, UniProt P29994); assay: Ca2+ release from permeabilized HEK-IP3R1 cells; assay type: cell-based; details: at the concentrations used (heparin 10 mg/mL, dequalinium 50 μM, 2-APB 125 μM), permeabilized HEK-IP3R1 cells
T1 construct: expressed in transfected cells
Method: Fluorescence, which is approximately linearly related to ER free [Ca^2+] […] Ca^2+-free CLM comprised: 20 mM NaCl, 140 mM KCl, 1 mM EGTA, 20 mM PIPES, 2 mM MgCl2, pH 7.0. […] MgATP (1.5 mM) was added to initiate Ca^2+ uptake, and when the ER had loaded to steady state with Ca^2+ (∼150 s), ligands were added. Responses to the ligands show ER Ca^2+ contents as either time courses or, in summary results, as the Ca^2+ content recorded 20 s after addition of the stimulus. The distribution of samples across 96-well plates was varied between experiments to avoid any systematic ‘position-related’ artifacts. HEK-G-CEPIA1er cells were permeabilized and assayed as described for Mag-fluo 4-loaded cells.
For equilibrium binding and concentration-effect relationships, results from each experiment were fitted to Hill equations (PRISM) from which pIC50 (-log of half-maximal inhibitory concentration) or pEC50 (-log of half-maximally effective concentration) values were determined.

[1] = biological target: T2, IP3R1 (cerebellar membranes) (Rattus norvegicus, UniProt P29994); assay: Equilibrium-competition [3H]IP3 binding to cerebellar membranes in CLM (conditions mimicking functional assays); details: dequalinium 50 μM, [3H]IP3 7.5 nM, cerebellar membranes in CLM at 20°C
T2 construct: membranes from cerebella of adult Wistar rats; from tissue; host or cells: cerebellar membranes of adult Wistar rats
Method: Bound and free ligand were separated by centrifugation (22°C, 5 min, 14,000 × g).
For equilibrium binding and concentration-effect relationships, results from each experiment were fitted to Hill equations (PRISM) from which pIC50 (-log of half-maximal inhibitory concentration) or pEC50 (-log of half-maximally effective concentration) values were determined. KDligand was calculated from: KDligand = […] . In functional assays, dose ratios (DR) were used to calculate antagonist affinities ([Arunlakshana and Schild, 1959]): KDantagonist = [antagonist]/(DR-1).

T1 sequence (P29994 1-2735 isoform P29994-2): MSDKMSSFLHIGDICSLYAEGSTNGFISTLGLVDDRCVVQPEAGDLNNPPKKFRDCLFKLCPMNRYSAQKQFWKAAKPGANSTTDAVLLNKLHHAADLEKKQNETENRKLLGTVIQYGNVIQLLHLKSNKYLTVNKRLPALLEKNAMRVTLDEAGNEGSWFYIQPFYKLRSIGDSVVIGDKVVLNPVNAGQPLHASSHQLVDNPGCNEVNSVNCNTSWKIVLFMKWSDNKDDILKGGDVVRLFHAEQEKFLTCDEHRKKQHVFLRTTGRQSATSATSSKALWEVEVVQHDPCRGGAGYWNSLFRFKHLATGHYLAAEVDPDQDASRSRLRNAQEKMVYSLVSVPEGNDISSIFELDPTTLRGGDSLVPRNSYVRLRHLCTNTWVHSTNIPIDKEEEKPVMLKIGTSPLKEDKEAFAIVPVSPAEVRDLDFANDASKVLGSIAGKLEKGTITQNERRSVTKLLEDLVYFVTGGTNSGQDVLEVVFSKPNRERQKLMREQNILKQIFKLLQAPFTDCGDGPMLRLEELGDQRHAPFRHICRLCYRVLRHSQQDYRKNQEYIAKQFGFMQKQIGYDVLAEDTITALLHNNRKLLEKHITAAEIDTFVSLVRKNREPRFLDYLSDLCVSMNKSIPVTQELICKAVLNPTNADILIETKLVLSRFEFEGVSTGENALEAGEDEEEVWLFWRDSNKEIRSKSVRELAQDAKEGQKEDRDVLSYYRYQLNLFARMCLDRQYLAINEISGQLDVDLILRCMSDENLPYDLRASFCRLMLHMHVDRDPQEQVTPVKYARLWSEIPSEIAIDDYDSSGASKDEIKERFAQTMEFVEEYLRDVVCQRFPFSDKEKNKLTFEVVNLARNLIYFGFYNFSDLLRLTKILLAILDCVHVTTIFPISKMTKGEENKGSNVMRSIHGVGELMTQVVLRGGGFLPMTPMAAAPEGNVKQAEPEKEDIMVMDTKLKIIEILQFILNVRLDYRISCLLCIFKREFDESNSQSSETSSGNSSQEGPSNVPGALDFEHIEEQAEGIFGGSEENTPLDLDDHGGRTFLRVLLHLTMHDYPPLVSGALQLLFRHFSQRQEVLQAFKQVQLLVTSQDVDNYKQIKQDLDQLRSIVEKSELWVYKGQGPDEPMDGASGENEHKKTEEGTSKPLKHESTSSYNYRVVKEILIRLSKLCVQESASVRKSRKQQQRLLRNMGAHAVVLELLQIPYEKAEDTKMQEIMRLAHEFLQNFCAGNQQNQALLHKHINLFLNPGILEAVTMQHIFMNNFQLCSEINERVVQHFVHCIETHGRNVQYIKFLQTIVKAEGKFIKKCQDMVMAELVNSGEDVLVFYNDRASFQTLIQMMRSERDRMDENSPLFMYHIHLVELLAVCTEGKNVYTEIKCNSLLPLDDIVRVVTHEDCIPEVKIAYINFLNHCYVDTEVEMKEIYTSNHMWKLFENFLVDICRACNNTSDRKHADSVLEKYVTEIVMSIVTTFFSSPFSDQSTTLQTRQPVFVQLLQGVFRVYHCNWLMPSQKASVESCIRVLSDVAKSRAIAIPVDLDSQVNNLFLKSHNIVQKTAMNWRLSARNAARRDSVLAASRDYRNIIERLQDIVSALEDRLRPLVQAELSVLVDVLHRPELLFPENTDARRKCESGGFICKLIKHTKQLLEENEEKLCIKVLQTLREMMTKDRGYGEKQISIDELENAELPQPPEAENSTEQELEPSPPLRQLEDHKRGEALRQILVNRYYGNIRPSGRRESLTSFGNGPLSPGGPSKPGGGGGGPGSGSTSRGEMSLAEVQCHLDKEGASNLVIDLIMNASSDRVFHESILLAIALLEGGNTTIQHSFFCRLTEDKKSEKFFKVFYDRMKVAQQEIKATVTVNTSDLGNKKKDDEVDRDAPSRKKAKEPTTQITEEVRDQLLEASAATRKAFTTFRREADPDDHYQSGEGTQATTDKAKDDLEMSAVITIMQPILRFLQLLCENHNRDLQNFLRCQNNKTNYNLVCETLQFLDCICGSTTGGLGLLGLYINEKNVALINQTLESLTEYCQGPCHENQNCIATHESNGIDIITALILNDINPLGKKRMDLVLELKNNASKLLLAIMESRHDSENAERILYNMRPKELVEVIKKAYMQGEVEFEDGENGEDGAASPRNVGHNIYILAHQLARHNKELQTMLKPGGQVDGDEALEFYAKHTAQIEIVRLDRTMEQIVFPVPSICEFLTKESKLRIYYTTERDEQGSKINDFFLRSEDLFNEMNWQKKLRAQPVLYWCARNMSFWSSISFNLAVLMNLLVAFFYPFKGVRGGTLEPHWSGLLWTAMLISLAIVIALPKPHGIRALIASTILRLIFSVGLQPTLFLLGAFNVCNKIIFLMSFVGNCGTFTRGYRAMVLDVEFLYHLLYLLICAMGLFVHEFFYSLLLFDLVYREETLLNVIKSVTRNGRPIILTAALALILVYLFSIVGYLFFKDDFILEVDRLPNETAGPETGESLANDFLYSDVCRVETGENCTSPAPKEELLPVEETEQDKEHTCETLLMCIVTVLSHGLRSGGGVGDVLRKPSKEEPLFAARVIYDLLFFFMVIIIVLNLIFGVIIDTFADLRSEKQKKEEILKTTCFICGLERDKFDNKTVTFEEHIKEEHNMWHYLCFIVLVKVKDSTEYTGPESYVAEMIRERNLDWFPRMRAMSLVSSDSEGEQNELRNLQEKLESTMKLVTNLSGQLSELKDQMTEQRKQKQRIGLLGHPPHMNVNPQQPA

SMILES | block of IP3-evoked Ca2+ release (IP3R1 (HEK-IP3R1 cells)) | effect on specific [3H]IP3 binding [1]
NCCOB(c1ccccc1)c1ccccc1 [Compound 2-APB, 2-aminoethoxydiphenyl borate] | partially | 
Cc1cc(N)c2ccccc2[n+]1CCCCCCCCCC[n+]1c(C)cc(N)c2ccccc21 [dequalinium, Dequalinium chloride hydrate] | completely | No significant difference
